Laboratory results: US20120219596A1, “INJECTABLE FORMULATION FOR TREATMENT AND PROTECTION OF PATIENTS HAVING AN INFLAMMATORY REACTION OR AN ISCHEMIA-REPERFUSION EVENT” (ETH Zurich, priority 2009, published 2012)
Like-named read-outs stand apart in the source and are kept apart here. Each block holds one compound with its values, some of them ahead of it.

Legend:
[1] = system: CINC-1/GROa protein levels of human blood micro vascular endothelial cells; experiment: CINC-1/GROa protein levels in supernatants of LPS-stimulated HMVEC (ELISA); format: cell-based; conditions: for CINC-1/GROa protein level in relation to LPS without any substance, Median: HMVEC, LPS 20 μg/ml 6 hours, positive control=100%
Experimental: Table 1 CINC-1/GROa protein levels of human blood micro vascular endothelial cells measured in supernatants in relation to an exposition to LPS without any substance (positive control=100%)
(§1) METHODS: Different molecules with CF3-group were tested against their corresponding non-fluorinated molecules. The group of molecules with CF3-group included hexafluoroisopropanol, 2,2,3,3,3-pentafluoro-1-propanol, 2,2,2-trifluorethanol, 3-amino-4,4,4-tri-fluorobutyroic acid, methyl-4,4,4-trifluoro-acetoacetate, methyl-trifluoro-acetamide, 5,5,5-trifluorleucine and Sevoflurane. In the group without CFx moieties 2-propanol, 1-propanol, ethanol, leucine, and diethyl ether were included. As well established model rat alveolar epithelial cells (AEC) and human blood microvascular cells (HMVEC) were exposed to phosphate-buffered saline (PBS, negative control) or LPS (20 μg/ml) for 6 hours (positive control). The influence of fluorinated compounds and non-fluorinated reference compounds on the inflammatory response of the cells was tested. Expression of rat-MCP-1 (BD Biosciences, San Diego, Calif.) and human CINC-1 GROa (R&D Systems Europe Ltd.) protein were analyzed by ELISA. Evaluation of possible cytotoxicity was done counting cells by means of fluorescence DNA quantification assays. At the same time release of lactate dehydrogenase into the supernatants was measured (LDH Assay, Promega, Madison, Wis., USA).

[2] = system: MCP-1 levels of rat alveolar epithelial cells; experiment: MCP-1 levels in supernatants of LPS-stimulated rat alveolar epithelial cells (ELISA); format: cell-based
Experimental: Table 2 MCP-1 levels of rat alveolar epithelial cells measured in supernatants in relation to an exposition to LPS without any substance (positive control=100%)
as §1

[3] = cited from earlier work
[4] = cited from earlier work; remark: listed apart in the source
[5] = system: inflammatory mediators and tissue damage markers (troponin or serum transaminase levels); conditions: patients undergoing lung, heart or liver surgery; cited from earlier work
[6] = system: human microvascular endothelial cells (HMVEC); experiment: Viability and cytotoxicity in HMVEC (LDH release, fluorescence DNA quantification); format: cell-based; conditions: LDH release and cell count by fluorescence DNA quantification, in relation to control (100%), FIG. 1
Experimental: Viability is assessed by measuring the release of lactate de-hydrogenase and cytotoxicity is quantified by counting cells by means of fluorescence DNA quantification assays (see example 1). […] Concentration level differences are presented in relation to control (100%).
as §1

[7] = system: polymorphonuclear neutrophils; experiment: Chemotactic migration of polymorphonuclear neutrophils towards supernatants from LPS-stimulated endothelial cells; format: cell-based; conditions: 16 mmol/L, FIG. 2
Experimental: Furthermore, the effect of hexafluoro-2-propanol in a concentration of 16 mmol/L on the chemotactic migration of polymorphonuclear neutrophils towards supernatants from LPS-stimulated endothelial cells (right side, 270)° and towards supernatants from LPS-stimulated endothelial cells incubated with hexafluoro-2-propanol (left side, 90°) was assessed according to (De Conno et al., Anesthesiology 2009; 110:1316-1326)

[8] = Epithelial cell, rat AEC, LPS 20 μg/ml 6 hours, 16 mmol/l in culture medium, positive control=100%, read-out: MCP-1 level in relation to LPS without any substance, Median
[9] = Epithelial cell, rat AEC, LPS 20 μg/ml 6 hours, 64 mmol/l in culture medium, positive control=100%, read-out: MCP-1 level in relation to LPS without any substance, Median
[10] = Rattus norvegicus, Epithelial cell, 6 h, read-out: MCP-1 level in relation to LPS without any substance, Median
[11] = Epithelial cell, rat AEC, LPS 20 μg/ml 6 hours, 32 mmol/l in culture medium, positive control=100%, read-out: MCP-1 level in relation to LPS without any substance, Median
[12] = footnote 1: Qiana et al., Journal of Chromatography A 2007
[13] = rat AEC, LPS 20 μg/ml 6 hours, 16 mmol/l in culture medium, positive control=100%
[14] = rat AEC, LPS 20 μg/ml 6 hours, 64 mmol/l in culture medium, positive control=100%
[15] = rat AEC, LPS 20 μg/ml 6 hours, 32 mmol/l in culture medium, positive control=100%

Compound: OCC(F)(F)C(F)(F)F [2,2,3,3,3-Pentafluoro-1-propanol]
- CINC-1/GROa protein level in relation to LPS without any substance, Median ([1]; 16 mmol/l in culture medium): 115%
- CINC-1/GROa protein level in relation to LPS without any substance, Median ([1]; 32 mmol/l in culture medium): 41%
- CINC-1/GROa protein level in relation to LPS without any substance, Median ([1]; 64 mmol/l in culture medium): 31%
- activity at 16000 µM [2, 8]: 92%
- activity at 64000 µM [2, 9]: 70%
- Solubility ([3]; 25° C.): 21.9 g/L (25° C.)

Compound: ClC(Cl)Cl [Chloroform, reference compound]
- activity at 64000 µM [2, 10]: 171%

Compound: CNC(=O)C(F)(F)F [Methyltrifluoroacetamide, N-Methyl-2,2,2-trifluoroacetamide]
- activity at 8000 µM [2, 10]: 80%
- activity at 16000 µM [2, 10]: 56%
- activity at 32000 µM [2, 10]: 41%
- activity at 64000 µM [2, 10]: 0%

Compound: FC(F)OC(F)C(F)(F)F (centres unmarked) [Desflurane]
- Octanol water partition coefficient ([4]; footnote 2: Urban et al. 1995): 28.5
- Inflammatory mediators and tissue damage markers in patients [5]: significantly reduces

Compound: OC(C(F)(F)F)C(F)(F)F [Hexafluoroisopropanol, 1,1,1,3,3,3-Hexafluoropropan-2-ol]
- CINC-1/GROa protein level in relation to LPS without any substance, Median ([1]; 4 mmol/l in culture medium): 49%
- CINC-1/GROa protein level in relation to LPS without any substance, Median ([1]; 16 mmol/l in culture medium): 26%
- CINC-1 levels of endothelial cells stimulated with LPS (in words) ([1]; LPS stimulation): decrease was most pronounced
- activity at 4000 µM ([2]; Epithelial cell, rat AEC, LPS 20 μg/ml 6 hours, 4 mmol/l in culture medium, positive control=100%, read-out: MCP-1 level in relation to LPS without any substance, Median): 98%
- activity at 8000 µM ([2]; Epithelial cell, rat AEC, LPS 20 μg/ml 6 hours, 8 mmol/l in culture medium, positive control=100%, read-out: MCP-1 level in relation to LPS without any substance, Median): 101%
- activity at 16000 µM [2, 8]: 63%
- activity at 32000 µM [2, 11]: 11%
- MCP-1 levels of epithelial cells stimulated with LPS (in words) ([2]; LPS stimulation): decrease was most pronounced
- Viability and cytotoxicity in HMVEC [6]: does not cause significant cytotoxicity
- Chemotaxis for neutrophils [7]: significantly attenuated chemotaxis
- Octanol water partition coefficient [4, 12]: 0.37 ^(1)
- Solubility ([3]; 25° C.): 1000 g/L (25° C.)

Compound: CCCO [1-Propanol, reference compound]
- CINC-1/GROa protein level in relation to LPS without any substance, Median ([1]; 16 mmol/l in culture medium): 82%
- CINC-1/GROa protein level in relation to LPS without any substance, Median ([1]; 32 mmol/l in culture medium): 81%
- CINC-1/GROa protein level in relation to LPS without any substance, Median ([1]; 64 mmol/l in culture medium): 64%
- MCP-1 level in relation to LPS without any substance, Median [2, 13]: 99%
- MCP-1 level in relation to LPS without any substance, Median [2, 14]: 74%

Compound: COC(=O)CC(=O)C(F)(F)F [Methyl-4,4,4-trifluoro-acetoacetate]
- activity at 16000 µM [2, 8]: 7%
- activity at 32000 µM [2, 11]: 0%

Compound: FC(F)(F)C(Cl)Br (centres unmarked) [Halothane]
- Octanol water partition coefficient ([4]; footnote 2: Urban et al. 1995): 315

Compound: CC(N)CC(=O)O (racemic) [DL-3-Amino-n-butyric acid, reference compound]
- MCP-1 level in relation to LPS without any substance, Median ([2]; rat AEC, LPS 20 μg/ml 6 hours, 8 mmol/l in culture medium, positive control=100%): 95%
- MCP-1 level in relation to LPS without any substance, Median [2, 13]: 91%
- MCP-1 level in relation to LPS without any substance, Median [2, 15]: 149%
- MCP-1 level in relation to LPS without any substance, Median [2, 14]: 117%

- melting point: 180 to 190 °C
Compound: NC(CC(=O)O)C(F)(F)F (centres unmarked) [3-Amino-4,4,4-Trifluorobutyroic acid, 3-Amino-4,4,4-trifluorobutyric acid]
- CINC-1/GROa protein level in relation to LPS without any substance, Median ([1]; 8 mmol/l in culture medium): 79%
- CINC-1/GROa protein level in relation to LPS without any substance, Median ([1]; 16 mmol/l in culture medium): 0%
- CINC-1/GROa protein level in relation to LPS without any substance, Median ([1]; 64 mmol/l in culture medium): 0%
- activity at 16000 µM [2, 8]: 101%
- activity at 32000 µM [2, 11]: 44%
- activity at 64000 µM [2, 9]: 0%
- Viability and cytotoxicity in HMVEC [6]: does not cause significant cytotoxicity

Compound: CC(C)O [2-Propanol, reference compound]
- CINC-1/GROa protein level in relation to LPS without any substance, Median ([1]; 4 mmol/l in culture medium): 109%
- CINC-1/GROa protein level in relation to LPS without any substance, Median ([1]; 16 mmol/l in culture medium): 97%
- MCP-1 level in relation to LPS without any substance, Median [2, 13]: 101%
- MCP-1 level in relation to LPS without any substance, Median [2, 15]: 86%
- MCP-1 level in relation to LPS without any substance, Median [2, 14]: 82%

Compound: FC(F)OC(Cl)C(F)(F)F (centres unmarked) [Isoflurane]
- Octanol water partition coefficient ([4]; footnote 2: Urban et al. 1995): 156
- Inflammatory mediators and tissue damage markers in patients [5]: significantly reduces

Compound: CC(C)C[C@H](N)C(=O)O [Leucine, reference compound]
- activity at 16000 µM [2, 8]: 91%

Compound: OCC(F)(F)F [2,2,2-Trifluorethanol, 2,2,2-Trifluoroethanol]
- CINC-1/GROa protein level in relation to LPS without any substance, Median ([1]; 16 mmol/l in culture medium): 98%
- CINC-1/GROa protein level in relation to LPS without any substance, Median ([1]; 32 mmol/l in culture medium): 78%
- CINC-1/GROa protein level in relation to LPS without any substance, Median ([1]; 64 mmol/l in culture medium): 73%
- activity at 16000 µM [2, 8]: 58%
- activity at 64000 µM [2, 9]: 59%
- Viability and cytotoxicity in HMVEC [6]: does not cause significant cytotoxicity
- Octanol water partition coefficient [4, 12]: 0.17 ^(1)
- Solubility ([3]; in words): miscible

Compound: Enflurane
- Octanol water partition coefficient ([4]; footnote 2: Urban et al. 1995): 122

Compound: Sevoflurane
- MCP-1 level in relation to LPS without any substance, Median [2, 14]: 68%
- Octanol water partition coefficient ([4]; footnote 2: Urban et al. 1995): 71
- Inflammatory mediators and tissue damage markers in patients [5]: significantly reduces

Compound: CC(C[C@H](N)C(=O)O)C(F)(F)F (some centres unmarked) [5,5,5-Trifluorleucine]
- MCP-1 level in relation to LPS without any substance, Median [2, 13]: 68%

Compound: CCO [Ethanol, reference compound]
- CINC-1/GROa protein level in relation to LPS without any substance, Median ([1]; 16 mmol/l in culture medium): 107%
- CINC-1/GROa protein level in relation to LPS without any substance, Median ([1]; 32 mmol/l in culture medium): 91%
- CINC-1/GROa protein level in relation to LPS without any substance, Median ([1]; 64 mmol/l in culture medium): 88%
- activity at 16000 µM [2, 8]: 103%
- activity at 64000 µM [2, 9]: 92%
